According to ChEMBL document CHEMBL1154216, “Development of a novel expression, ZI MAX/K ZI, for determination of the counter-anion effect on the antimicrobial activity of tetrabutylammonium salts” (2009):

Legend:
Escherichia coli = experiment: Antimicrobial activity against Escherichia coli K-12 C600 assessed as ratio of maximum zone of inhibition to concentration required to reach half maximum zone of inhibition after 24 hrs; type: functional
[1] = tested on: Staphylococcus epidermidis; type: functional, ATCC 12228
Description: Antimicrobial activity against Staphylococcus epidermidis ATCC 12228 assessed as ratio of maximum zone of inhibition to concentration required to reach half maximum zone of inhibition after 24 hrs

Structure (SMILES) | ZImax/KZI (Escherichia coli) [mm microL/micromol] | ZImax/KZI [1] [mm microL/micromol]
CCCC[N+](CCCC)(CCCC)CCCC.F[B-](F)(F)F [TETRABUTYLAMMONIUM TETRAFLUOROBORATE] | 0.499 | 25.71
Br.Br.CCCC[N+](CCCC)(CCCC)CCCC.[Br-] [MONO(TETRABUTYLAMMONIUM)TRIBROMIDE] | 37.59 | 48.08
CCCC[N+](CCCC)(CCCC)CCCC.[O-][Cl+3]([O-])([O-])[O-] [TETRABUTYLAMMONIUM PERCHLORATE] | 0 | 14.77
CCCC[N+](CCCC)(CCCC)CCCC.O=P([O-])(O)O [TETRABUTYLAMMONIUM DIHYDROGENPHOSPHATE] | 0 | 23.58
CCCC[N+](CCCC)(CCCC)CCCC.[I-] [TETRABUTYLAMMONIUM IODIDE] | 0.381 | 140.85
CCCC[N+](CCCC)(CCCC)CCCC.O=C([O-])c1ccccc1 [TETRABUTYLAMMONIUM BENZOATE] | 0.333 | 39.81
CC(O)C(=O)[O-].CCCC[N+](CCCC)(CCCC)CCCC | 0 | 103.09
CCCC[N+](CCCC)(CCCC)CCCC.[OH-] [TETRABUTYLAMMONIUM HYDROXIDE] | 4.06 | 27.17
CC(=O)[O-].CCCC[N+](CCCC)(CCCC)CCCC [TETRABUTYLAMMONIUM ACETATE] | 4.2 | 37.88
CCCC[N+](CCCC)(CCCC)CCCC.[F-] [TETRABUTYLAMMONIUM FLUORIDE] | 0.842 | 15.82
CCCC[N+](CCCC)(CCCC)CCCC.O=P[O-] [TETRABUTYLAMMONIUM PHOSPHENITE] | 0.408 | 52.08
CCCC[N+](CCCC)(CCCC)CCCC.Cc1ccc(S(=O)(=O)[O-])cc1 | 0 | 8.55
CCCC[N+](CCCC)(CCCC)CCCC.[Br-] [TETRABUTYLAMMONIUM BROMIDE] | 0.516 | 16.69
CCCC[N+](CCCC)(CCCC)CCCC.[Cl-] [TETRABUTYLAMMONIUM] | 0.382 | 23.58
CCCC[N+](CCCC)(CCCC)CCCC.O=S(=O)([O-])O [TETRABUTYLAMMONIUM HYDROGENSULFATE] | 4.98 | 84.03
CCCC[N+](CCCC)(CCCC)CCCC.O=S(=O)([O-])C(F)(F)F [TETRABUTYLAMMONIUM TRIFLUOROMETHANESULFONATE] | 0.067 | 64.94
CCCC[N+](CCCC)(CCCC)CCCC.O=[N+]([O-])[O-] [BIS(TETRABUTYLAMMONIUM)MONONITRATE] | 0.333 | 30.67
CCCC[N+](CCCC)(CCCC)CCCC.CS(=O)(=O)[O-] [TETRABUTYLAMMONIUM METHANESULFONATE] | 0.167 | 23.53
CCCC[N+](CCCC)(CCCC)CCCC.N#C[S-] [TETRABUTYLAMMONIUM THIOCYANATE] | 6.28 | 11.59
